The source made the active and inactive calls. The calls are words filed in the database; no cut-off is given here.
Experiments:
THP-1 = test: Antiinflammatory activity in human THP1 cells; format: functional, cell-based
Mus musculus [1] = test: Antiinflammatory activity in LPS-stimulated acute inflammation BALB/c mouse model assessed as inhibition of plasma IL-6 level at 10 mg/kg, po administered 2 hrs before LPS challenge; format: functional
Salmonella typhimurium = test: Mutagenic activity in Salmonella typhimurium by Ames assay; format: toxicity, organism-based; settings: salmonella enterica subsp. enterica serovar typhimurium
Hepatocyte [2] = test: Bioactivation in human hepatocytes assessed as compound epoxidation; format: cell-based
HepG2 = test: Upregulation of ApoA1 expression in human HepG2 cells assessed as concentration required to increase 70% of luciferase activity after 18 hrs by luciferase reporter gene assay; format: functional
PBMC [3] = test: Inhibition of LPS-stimulated IL-6 production in human PBMC; format: functional, cell-based
Mus musculus [4] = test: Antiinflammatory activity in LPS-stimulated acute inflammation BALB/c mouse model assessed as inhibition of plasma PAI-1 level at 10 mg/kg, po administered 2 hrs before LPS challenge; format: functional
Rattus norvegicus [5] = species on record: Rattus norvegicus; test: Dose normalized AUC (0 to infinity ) in CD rat; format: ADME, organism-based; settings: in vivo
Mus musculus [6] = test: Antiinflammatory activity in LPS-stimulated acute inflammation BALB/c mouse model assessed as inhibition of plasma MCP-1 level at 10 mg/kg, po administered 2 hrs before LPS challenge; format: functional
Cytochrome P450 2C9 = Cytochrome P450 2C9 (Homo sapiens, UniProt P11712); test: Inhibition of CYP2C9; format: ADME
Mus musculus [7] = test: Antiinflammatory activity in LPS-stimulated acute inflammation BALB/c mouse model assessed as inhibition of plasma TNF-alpha level at 10 mg/kg, po administered 2 hrs before LPS challenge; format: functional
Hepatocyte [8] = test: Bioactivation in human hepatocytes assessed as glutathione trapping; format: cell-based
Rattus norvegicus [9] = species on record: Rattus norvegicus; test: Half life in CD rat; format: ADME, organism-based; settings: in vivo
[10] = Volume of distribution at steady state in CD rat; format: ADME, organism-based; settings: in vivo, read-out: Vdss
Hepatocyte [11] = test: Bioactivation in rat hepatocytes assessed as glutathione trapping; format: cell-based
[12] = Oral bioavailability in CD rat; format: ADME, organism-based; settings: in vivo
Hepatocyte [13] = test: Bioactivation in rat hepatocytes assessed as compound epoxidation; format: cell-based
PBMC [14] = test: Inhibition of LPS-stimulated TNFalpha production in human PBMC; format: functional, cell-based

Sequence of Cytochrome P450 2C9 (P11712 whole entry): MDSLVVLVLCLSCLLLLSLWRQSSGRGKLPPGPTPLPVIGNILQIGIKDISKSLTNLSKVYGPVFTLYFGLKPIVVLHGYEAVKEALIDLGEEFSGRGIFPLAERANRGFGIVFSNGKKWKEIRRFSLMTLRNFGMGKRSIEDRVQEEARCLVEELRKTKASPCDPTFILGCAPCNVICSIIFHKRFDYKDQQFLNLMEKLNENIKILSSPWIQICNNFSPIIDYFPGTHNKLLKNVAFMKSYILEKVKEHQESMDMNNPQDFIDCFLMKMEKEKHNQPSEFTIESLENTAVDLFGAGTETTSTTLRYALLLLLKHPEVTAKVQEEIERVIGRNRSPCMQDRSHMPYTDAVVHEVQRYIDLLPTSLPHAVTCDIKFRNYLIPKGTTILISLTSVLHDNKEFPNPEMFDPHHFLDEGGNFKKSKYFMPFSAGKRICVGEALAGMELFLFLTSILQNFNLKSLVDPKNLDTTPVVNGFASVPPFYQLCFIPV

Question: For `COc1cc2c(cc1-c1c(C)noc1C)ncc1[nH]c(=O)n([C@H](C)c3ccccn3)c12`, which Activity (THP-1) is on record?
Answer: Active

Question: And the inhibition in vivo at 10 mg/kg (Mus musculus [1])?
Answer: 75%

Question: And the Activity (Salmonella typhimurium)?
Answer: Non-toxic

Question: And the Drug metabolism (Hepatocyte [2])?
Answer: Not Active

Question: And the EC170 (HepG2)?
Answer: 0.09 µM

Question: And the inhibition (PBMC [3])?
Answer: Dose-dependent effect

Question: What about the inhibition in vivo at 10 mg/kg (Mus musculus [4]) of the same compound?
Answer: 35%

Question: What about the AUC/dose (Rattus norvegicus [5]) of the same compound?
Answer: 38 kg·min/L

Question: And the inhibition in vivo at 10 mg/kg (Mus musculus [6])?
Answer: 47%

Question: What about the IC50 (Cytochrome P450 2C9) of the same compound?
Answer: 9.9 µM

Question: And the inhibition in vivo at 10 mg/kg (Mus musculus [7])?
Answer: 65%

Question: And the Drug metabolism (Hepatocyte [8])?
Answer: Not Active

Question: What about the t1/2 (Rattus norvegicus [9]) of the same compound?
Answer: 1.7 h

Question: And the Vd [10]?
Answer: 2.1 L/kg

Question: And the Drug metabolism (Hepatocyte [11])?
Answer: Not Active

Question: What about the bioavailability [12] of the same compound?
Answer: 66%

Question: What about the Drug metabolism (Hepatocyte [13]) of the same compound?
Answer: Not Active

Question: What about the inhibition (PBMC [14]) of the same compound?
Answer: Dose-dependent effect
